Series [1] deals with undesired urotoxic side effects caused by cytostatically active alkylating agents. Particulars: background, cited from earlier work; for effect of introducing solutions into the urinary bladder by catheter: instillation, in particular cytostatics at very high dosages; for protective activity against cytostatically active alkylating agents: cysteine compared with salts of mercapto alkane sulfonic acids, cystine = corresponding disulfide.

For series [2], the system named is kidneys, urinary tracts and urinary bladder. The series can be described thus: urotoxic side effects in cancer patients treated with ifosfamide (hematuria, albuminuria, damage to kidney and urinary bladder). As to conditions: for hematuria under ifosfamide therapy without thiol/disulfide protection: 5 times per day, 5 days. The format is in vivo, human. On the procedure: In accordance with the known practice of therapy a patient and suffering from a theratoid carcinoma of the testicle, at first is subjected to irradiation and thereafter is treated with ifosfamide [i.e. 2-(N-2-chloroethyl-amino)-3-(2-chloroethyl)-2-oxo-1,3,2-oxazaphosphorinane] at 5 times per day, each time with 60 mg./kg. intravenously and at 5 subsequent days. The patient is simultaneously hydrated by administration of 4 liters of water spread over the day and is alkalinized by administration of hexapotassium hexasodium pentacitrate hydrate complex. […] This necessitated immediate rupture of the therapy. After a recovery period of 14 days, the therapy is repeated. However, 60 mg/kg. of the disodium salt of 2,2'-dithiodi-(ethane sulfonic acid) is administered intravenously and simultaneously with each dose of 60 mg/kg. of ifosfamide. The patient is controlled daily for micro- and […] and for albuminuria.
In another patient suffering from the same tumor, the therapy at first is started with the oral administration of 60 mg./kg. of the disodium salt of 2.2'-dithiodi-(ethane sulfonic acid). Two hours thereafter, 60 mg./kg. of ifosfamide are administered intravenously. The same treatment, i.e. the combination of an oral preadministration of the disodium salt of 2,2'-dithiodi-(ethane sulfonic acid) and a subsequent intravenous administration of 60 mg./kg. of ifosfamide is repeated at 5 subsequent days. […] In both the above treatments a moderate hydration (2 liters per day) has been carried out. The treatment rendered superfluous alkalinization as well as the most burdensome instillation of mercapto group containing compounds into the bladder of the patient by means of a catheter.
According to the general experience with such patients, there occurs very readily […] despite application of all known prophylactic treatments such as hydration, alkalinization or instillation of mercapto group containing compounds into the urinary bladder.
(§1) In accordance with the known practice of therapy, a patient and suffering from a cancer of the ovary, at first is subjected to irradiation and thereafter is treated with ifosfamide [i.e. 2-(N-2-chloroethyl-amino)-3-(2-chloroethyl)-2-oxo-1,3,2-oxazaphosphorinane] at 5 times per day, each time with 60 mg./kg. intravenously and at 5 subsequent days. […] After a recovery period of 14 days the therapy is repeated. However, 35 mg./kg. of the sodium salt of 2-mercapto ethane sulfonic acid is administered intravenously and simultaneously with each dose of 60 mg./kg. of ifosfamide, 60, 120 and, respectively, 180 minutes after this intravenous injection 45 mg. of the disodium salt of 2,2'-dithiodi-(ethanesulfonic acid) each time are administered to the patient. The patient is controlled daily for micro- and macrohematuria and for albuminuria. […] The examination of the urine upon cytotoxic activity at varying times after administration of ifosfamide also was negative.
The same protective treatment was effected with the same favourable results in patients suffering from other cancer deceases such as parvicellular bronchial carcinoma or pancreatic carcinoma.

Series [3] in a line: examination of the urine upon cytotoxic activity / cytostatically active metabolites after administration of ifosfamide. In kind it is in vivo, human. Particulars: Example 4: same combination with sodium salt of 2-mercapto ethane sulfonic acid. On the procedure: as §1

Data on five compounds can be found in patent US4218471A, “Process for the treatment of humans suffering from undesired urotoxic side effects caused by cytostatically active alkylating agents” (Asta-Werke Aktiengesellschaft Chemische Fabrik, priority 1978, dated 1980).

Each structure is given as a SMILES string. Where a name gives a salt, the structure may show the parent alone.

As for `CC(=O)N[C@@H](CS)C(=O)O` [N-acetylcysteine], in series [1] (instillation into urinary bladder with cyclophosphamide and ifosfamide at very high dosages), the “clinical effectiveness of the instillation prophylaxis” value is on record as “by no means was satisfactory”. In addition, in series [1], the “effect of introducing solutions into the urinary bladder by catheter” value is “very limited”.

`N[C@@H](CS)C(=O)O` [cysteine]: in series [1], the “protective activity against cytostatically active alkylating agents” value is “limited but distinct protective activity” and the “effect of introducing solutions into the urinary bladder by catheter” value is given as “very limited”.

Consider `N[C@@H](CSSC[C@H](N)C(=O)O)C(=O)O` [cystine], for which the “protective activity against cytostatically active alkylating agents” value in series [1] is given as “does not have any such protective activity”.

`O=S(=O)(O)CCSSCCS(=O)(=O)O` [disodium salt of 2,2'-dithiodi-(ethanesulfonic acid)]: the “erythrocytes, albumina or granular cylindrical cells in the urine” value in series [2] (Example 1: 60 mg/kg i.v. simultaneously with each dose of 60 mg/kg ifosfamide, same patient after 14 days recovery) is recorded as “At no time during the treatment erythrocytes, albumina or granular cylindrical cells were found in the urine of the patient”. Further, in series [2] (Example 2: 60 mg/kg oral, two hours before ifosfamide 60 mg/kg i.v., 5 subsequent days, moderate hydration 2 liters per day), the “damage to kidney or urinary bladder, hematuria, albumina or granular cylindrical cells in the urine” value is “no indication of any damage to the kidney or the urinary bladder or of hematuria or of albumina or granular cylindrical cells in the urine of the patient at any time during the treatment”. Besides, in series [2] (Example 3: 60 mg/kg i.v. simultaneously with ifosfamide 60 mg/kg i.v. single dose over 5 days, patient sensibilized by regional radiotherapy), the “damage to the kidneys and the urinary bladder” value was “there did not occur any damage to the kidneys and the urinary bladder”. The hematuria or albuminuria entry in series [2] (Example 4: 35 mg/kg sodium salt of 2-mercapto ethane sulfonic acid i.v. simultaneously with ifosfamide 60 mg/kg, then 45 mg disodium salt of 2,2'-dithiodi-(ethanesulfonic acid) at 60, 120 and 180 minutes) is “no indication of hematuria or albuminuria”. Also, the “cytostatically active metabolites in the urine” value in series [3] (after ifosfamide) is “No cytostatically active metabolites were found in the urine”. Further, the “cytotoxic activity of the urine” value in series [3] (varying times after ifosfamide) is recorded as “negative”.

For `O=P1(NCCCl)OCCCN1CCCl` (stereo not shown) [ifosfamide, 2-(N-2-chloroethyl-amino)-3-(2-chloroethyl)-2-oxo-1,3,2-oxazaphosphorinane], the “hematuria under ifosfamide therapy without thiol/disulfide protection” value in series [2] (Example 1: ifosfamide 60 mg/kg i.v., with hydration 4 liters and alkalinization, testicular carcinoma patient) is recorded as “macrohematuria already on the fourth day”; in series [2] (Example 4: ifosfamide 60 mg/kg i.v., with hydration and alkalinization, patient with cancer of the ovary), “microhematuria”.
